Read-outs that look alike come from different tables or passages of the source.
What was measured:
type 1 5α-reductase = type: biochemical
Method: [^3 H]4-MA binding assay were described in detail previously (Liang and Liao, 1992; Liang et al., 1983). […] The reaction was started by the addition of 25 μl of microsomes (25 μg protein). After 30-60 min incubation at 0° C., the [^3 H]4-MA bound to microsomes was collected on a Whatman GF/F glass fiber, washed and radioactivity determined (Liang and Liao, 1992).
The reaction was started by the addition of 25 μl of microsomes (25 μg protein). The mixture was incubated at 37° for 30-60 min and stopped by addition of 0.5 ml of ethyl acetate and mixing for 1 min. The organic solvent extract was removed under vacuum.

[1] = tested on: androgen-dependent organs; type: in vivo, rat
Method: The control rats were injected with 0.3 ml of 30% ethanol.

[2] = biological target: T1, rat small intestinal sucrase (Rattus norvegicus, UniProt P23739); settings: cited from earlier work
T1 construct: rat small intestinal sucrase and maltase; host or cells: rat small intestine
T1 sequence (P23739 1014-1841 limits assumed): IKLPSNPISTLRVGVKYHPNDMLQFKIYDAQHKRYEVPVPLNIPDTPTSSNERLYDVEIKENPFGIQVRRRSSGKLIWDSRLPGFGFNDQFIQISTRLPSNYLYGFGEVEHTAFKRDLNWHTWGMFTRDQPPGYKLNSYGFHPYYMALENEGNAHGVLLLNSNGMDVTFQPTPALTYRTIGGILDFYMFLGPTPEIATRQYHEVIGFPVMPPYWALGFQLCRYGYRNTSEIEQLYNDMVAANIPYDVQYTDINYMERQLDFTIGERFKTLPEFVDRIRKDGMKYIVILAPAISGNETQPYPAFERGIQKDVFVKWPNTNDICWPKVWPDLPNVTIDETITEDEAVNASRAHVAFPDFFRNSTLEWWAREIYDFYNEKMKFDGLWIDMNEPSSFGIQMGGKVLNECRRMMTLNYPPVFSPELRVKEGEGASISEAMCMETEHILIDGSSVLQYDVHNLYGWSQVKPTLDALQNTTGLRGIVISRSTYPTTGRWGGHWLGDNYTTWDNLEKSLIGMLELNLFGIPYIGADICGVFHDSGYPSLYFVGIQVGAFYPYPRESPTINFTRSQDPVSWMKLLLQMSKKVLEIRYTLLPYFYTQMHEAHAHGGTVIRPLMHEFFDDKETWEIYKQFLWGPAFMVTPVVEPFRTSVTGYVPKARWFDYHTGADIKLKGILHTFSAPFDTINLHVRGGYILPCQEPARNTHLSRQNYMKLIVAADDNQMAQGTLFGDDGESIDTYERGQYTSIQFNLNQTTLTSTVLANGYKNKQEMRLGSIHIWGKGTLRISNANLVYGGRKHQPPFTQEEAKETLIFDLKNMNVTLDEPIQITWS
T1 sequence (P23739 2-1013 partner limits assumed): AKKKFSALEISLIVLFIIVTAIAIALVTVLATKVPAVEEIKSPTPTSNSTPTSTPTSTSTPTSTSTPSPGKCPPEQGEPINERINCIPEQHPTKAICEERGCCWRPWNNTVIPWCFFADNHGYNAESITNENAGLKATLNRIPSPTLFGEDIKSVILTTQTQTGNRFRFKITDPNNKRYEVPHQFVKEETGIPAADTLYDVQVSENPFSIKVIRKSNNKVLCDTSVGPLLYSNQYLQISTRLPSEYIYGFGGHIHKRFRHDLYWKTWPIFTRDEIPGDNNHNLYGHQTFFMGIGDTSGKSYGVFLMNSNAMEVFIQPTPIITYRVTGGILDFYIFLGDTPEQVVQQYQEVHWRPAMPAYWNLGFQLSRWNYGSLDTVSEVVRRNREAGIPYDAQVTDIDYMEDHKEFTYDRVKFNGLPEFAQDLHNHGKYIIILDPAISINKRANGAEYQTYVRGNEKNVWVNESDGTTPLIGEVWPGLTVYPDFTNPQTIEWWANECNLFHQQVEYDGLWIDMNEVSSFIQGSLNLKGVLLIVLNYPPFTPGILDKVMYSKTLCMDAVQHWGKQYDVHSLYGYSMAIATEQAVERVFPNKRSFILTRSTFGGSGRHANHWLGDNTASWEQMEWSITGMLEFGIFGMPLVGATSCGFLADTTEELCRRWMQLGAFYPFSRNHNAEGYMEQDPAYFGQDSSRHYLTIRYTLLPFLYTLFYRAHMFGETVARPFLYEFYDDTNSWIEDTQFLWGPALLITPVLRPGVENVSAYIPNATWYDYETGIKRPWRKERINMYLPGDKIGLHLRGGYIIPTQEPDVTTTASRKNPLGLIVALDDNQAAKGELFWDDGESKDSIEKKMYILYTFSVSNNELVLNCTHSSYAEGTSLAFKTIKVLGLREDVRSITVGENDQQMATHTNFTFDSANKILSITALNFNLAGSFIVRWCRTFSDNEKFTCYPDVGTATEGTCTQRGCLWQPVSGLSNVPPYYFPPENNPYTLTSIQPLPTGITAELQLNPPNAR

[3] = tested on: human breast tumor cell line, MDF-7; test: Human breast tumor growth in nude mice; type: in vivo; settings: 1 mg/mouse/day, 2 weeks
Method: For breast tumor studies, human breast tumor cell line, MDF-7 (1 million cells) was injected into female nude mice. After 5 weeks, the tumor was over 1000 mm^3.

[4] = tested on: prostate and preputial glands; test: EGCG ip 7 days, normal and castrated rats with androgen; type: in vivo, rat; settings: for prostate weight reduction: 5 mg/day
Method: Male Sprague-Dawley rats, 60±5 g body weight, were used. Rats were divided into 6 groups. Each group had 5 rats. Groups 1 and 2 were normal rats while the other 4 groups had rats castrated on the first day. […] The control rats (Group 1) received 0.1 ml of 30% ethanol.

[5] = tested on: human liver microsomes 5α-reductase; settings: vs rat liver microsomes
Method: (§1) Briefly, the binding assay solution, in a final volume of 0.15 ml, contained microsomes (2-20 μg of protein), 0.08 μCi of [^3 H]4-MA, 0.1 mM-NADPH, 1 mM-dithiothreitol and 50 mM-potassium phosphate, pH 7.0, with or without the indicated amount of a lipid or an inhibitor preparation. Lipids were dissolved in ethanol and added in 1-5 μl volumes. Control tubes received the same amount of ethanol. After incubation at 0° C. for 1 h, the [^3 H]4-MA bound to microsomes was determined by collecting microsomes on a Whatman GF/1F glass fibre filter and washing with 10 ml of 20 mM-potassium phosphate, pH 7.0, containing 0.01% CHAPS to remove unbound [^3 H]4-MA.
(§2) Microsomes were prepared at 4° C. from a buffered 0.32M-sucrose homogenate of human liver and from the livers of adult Sprague-Dawley female rats by differential centrifugation as described previously (Liang et al., 1990), and were used in the assay of 5α-reductase activity. In some experiments, microsomes were solubilized with 0.1% polyoxyethylene ether W-1 as described previously (Liang et al., 1990), except for the substitution of polyoxyethylene ether W-1 for Lubrol-WX.

microsomal 5α-reductase = biological target: T2, microsomal 5α-reductase (Rattus norvegicus, UniProt P24008); test: Enzymatic assay of microsomal 5α-reductase (testosterone to 5α-DHT); type: biochemical
T2 construct: from the livers of adult Sprague-Dawley female rats; from tissue; host or cells: liver microsomes of adult female Sprague-Dawley rats
T2 sequence (P24008 1-259): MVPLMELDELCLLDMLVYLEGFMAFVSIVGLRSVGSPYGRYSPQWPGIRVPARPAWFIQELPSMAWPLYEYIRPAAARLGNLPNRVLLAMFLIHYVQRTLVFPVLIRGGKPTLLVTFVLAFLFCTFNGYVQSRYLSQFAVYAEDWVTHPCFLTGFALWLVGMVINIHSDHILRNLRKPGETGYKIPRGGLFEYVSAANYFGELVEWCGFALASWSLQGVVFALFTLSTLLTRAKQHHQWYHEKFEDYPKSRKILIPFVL
Method: as §2

[6] = tested on: Human Prostatic Cancer Cells; test: Cell morphology during 2 hour incubation; type: cell-based
hamster flank organ = settings: for Pigmented macule, right flank organ / Pigmented macule, left flank organ (vehicle): 15 days; for Pigmented macule, right flank organ: vehicle 23.5 ± 3.8
Method: Animals were divided into 10/group. The right flank organ was treated daily with 5 μl solution containing vehicle (ethanol) alone or γ-LA (0.5, 1, and 2 mg) for 15-25 days. The left flank organ of all animals received the same volume of vehicle.
The lengths of the long axis and the short axis of the pigmented spot (pigmented macule) were measured using a caliper with digital display (Digimatic, Mitutoyo Corp., Japan). […] The data are presented as mean ± standard deviation.

NADH:menadione reductase = settings: 10 to 40 μM
[7] = tested on: 5α-reductase in liver and prostate; settings: cited from earlier work
[8] = biological target: T3, 5α-Reductase of Rat Liver Microsomes (Rattus norvegicus, UniProt P24008); test: biochemical; settings: for Ki: apparent Ki values for [^3 H]4-MA
T3 sequence (P24008 1-259): T2 sequence (P24008 1-259)
Method: as §1, §2

[9] = read-out: % Inhibition of [^3 H]4-MA binding

## O=C(O[C@@H]1Cc2c(O)cc(O)cc2O[C@@H]1c1cc(O)c(O)c(O)c1)c1cc(O)c(O)c(O)c1 [EGCG, (-)Epigallocatechin-3-gallate]
Type 1 5α-reductase
  competition with testosterone or NADPH: did not appear to compete with testosterone or NADPH
[1]; 10 mg per day
  body weight reduction: about 10%
  coagulating glands weight reduction: about 30%
  dorsolateral prostate weight reduction: about 30%
  effect on weights of testis and kidney: not significant
  preputial glands weight loss: 20 to 25%
  seminal vesicles weight loss: 20 to 25%
  ventral prostate weight reduction: about 30%
[1]; 10 mg per day, discussion
  body weight loss: less than 10%
  prostate weight loss: more than 30%
[1]; 15 mg per day
  body weight reduction: about 25%
  effect on weights of testis and kidney: ≤ 10%
[1]; 15 mg per day, prostates, coagulating glands, seminal vesicles, preputial glands
  weight reduction for all of these organs: ≥ 60%
[1]; application stopped, FIG. 38
  reversibility of body weight effect: reversible
[1]; male rats, ventral and dorsolateral prostates, coagulating glands, seminal vesicles, preputial glands
  organ weights: without affecting the weight of testis or kidney
[2]
  IC50: 50 to 500 µM
[3]
  tumor reduction: 50%
[4]; castrated + 5α-DHT
  prostate weight reduction: no reduction
[4]; castrated + testosterone
  prostate weight reduction: about 23%
[4]; normal and castrated rats with testosterone or 5α-DHT, 7 days
  body weight reduction: 8±1%
[4]; normal rats
  prostate weight reduction: about 30%
[4]; rat, in vivo
  pathology examination of organs and blood: did not reveal any abnormal growth or pathogenic effects

## CCCCC/C=C\C/C=C\C/C=C\CCCCC(=O)O [γ-Linolenic acid, γ-linolenic acid]
[5]
  inhibition of NADPH-dependent [^3 H]4-MA binding: to the same degree as in experiments with rat liver microsomes
Microsomal 5α-reductase
  competition with testosterone or NADPH: did not appear to compete with testosterone or NADPH
Microsomal 5α-reductase; 5 μM γ-LA, 2.0 without, read-out: apparent Km value for NADPH
  Km: 3.1 µM
Microsomal 5α-reductase; 5 μM γ-LA, 7.5 without
  Vmax: 2.8 pmol 5α-DHT formed/mg protein/15 min
Microsomal 5α-reductase; read-out: apparent Km value for testosterone, 5 μM γ-LA, 2.4 without
  Km: 4.5 µM
[6]
  visible change in cell morphology: did not produce any visible
Hamster flank organ; FIG. 32, 1 and 2 mg
  growth rate of pigmented macules: dramatically reduced
Hamster flank organ; Table 7, 0.5 mg
  change of pigmented macule (#): -34%
  change of pigmented macule (*): -19%
Hamster flank organ; Table 7, 0.5 mg/day
  Pigmented macule, right flank organ: 19.0 ± 3.6 mm^2
Hamster flank organ; Table 7, 1.0 mg
  change of pigmented macule (#): -63%
  change of pigmented macule (*): -54%
Hamster flank organ; Table 7, 1.0 mg/day
  Pigmented macule, right flank organ: 10.8 ± 2.7 mm^2
Hamster flank organ; Table 7, group 2, right treated with 0.5 mg
  Pigmented macule, left flank organ (vehicle): 28.6 ± 4.0 mm^2
Hamster flank organ; Table 7, group 3, right treated with 1.0 mg
  Pigmented macule, left flank organ (vehicle): 29.2 ± 4.8 mm^2
Hamster flank organ; hamster, in vivo
  effect on contralateral pigmented macules: not affected
NADH:menadione reductase
  effect on NADH:menadione reductase: did not affect
[7]
  inhibition of 5α-reductase activity in liver and prostate: inhibit 5α-reductase activity in both the liver and prostate
[8]; γ-LA 5 μM
  Ki: 0.02 µM
[8]; γ-LA 10 μM
  Ki: 0.04 µM
[8]; [9]
  inhibition at 5 µM: 30%
  inhibition at 10 µM: 50 ± 2%
  inhibition at 40 µM: 83 ± 12%
  inhibition at 200 µM: 96 ± 2%

— patent publication US5605929A, “Methods and compositions for inhibiting 5α-reductase activity” (priority 1995, dated 1997)
